In patent US7632829B2, “Diazepan derivatives” (Hoffmann-La Roche Inc., priority 2006, dated 2009):

Target: T1, human chemokine receptor 2 isoform B (Homo sapiens, UniProt P41597)
T1 construct: host or cells: CHOK1-CCR2B-A5 (CHO-K1)
T1 sequence (P41597 1-360 isoform P41597-2): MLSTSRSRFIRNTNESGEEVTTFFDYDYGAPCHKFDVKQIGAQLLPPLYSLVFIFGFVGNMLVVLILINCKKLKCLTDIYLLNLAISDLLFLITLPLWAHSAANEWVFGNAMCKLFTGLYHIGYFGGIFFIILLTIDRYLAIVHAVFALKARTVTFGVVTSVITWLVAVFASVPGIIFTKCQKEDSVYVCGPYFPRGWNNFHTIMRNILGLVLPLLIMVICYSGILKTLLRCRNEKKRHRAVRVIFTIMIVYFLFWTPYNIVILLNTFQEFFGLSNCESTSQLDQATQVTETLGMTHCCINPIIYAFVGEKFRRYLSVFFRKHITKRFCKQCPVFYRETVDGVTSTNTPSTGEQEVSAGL
Experiment: Calcium mobilization assay (FLIPR, CHOK1-CCR2B-A5 cells, 20 nM MCP-1)
Format: cell-based
Details: Ca mobilisation assay, CCR2, antagonist activity vs 20 nM MCP-1
Method: CHOK1-CCR2B-A5 cells (from Euroscreen) stably overexpressing the human chemokine receptor 2 isoform B were cultured in Nutrient Hams F12 medium supplemented with 5% FBS, 100 U/ml penicillin, 100 μg/ml streptomycin, 400 μg/ml G418 and 5 μg/ml puromycin.
For the assay cells were grown overnight in 384-well black clear flat bottom polystyrene plates (Costar) at 37° C. at 5% CO2. After washing with DMEM, 20 mM Hepes, 2.5 mM probenecid, 0.1% BSA (DMEM assay buffer) cells were loaded with 4 μM Fluo-4 in the same DMEM assay buffer for 2 hours at 30° C. Excess dye was removed and cells were washed with DMEM assay buffer. 384-well compound plates were prepared with DMEM assay buffer/0.5% DMSO with or without various concentrations of test compounds. Usually compounds were tested for agonist and antagonist activity.
Test compounds were added to the assay plate and agonist activity was monitored as fluorescence for 80 seconds with a FLIPR (488 nm excitation; 510-570 nm emission; Molecular Devices). After 20-30 min. of incubation at 30° C., 20 nM MCP-1 (R&D; Roche) was added and fluorescence was monitored again for 80 seconds. Increases in intracellular calcium are reported as maximum fluorescence after agonist exposure minus basal fluorescence before exposure. Antagonist activity is indicated as inhibitor concentration required for 50% inhibition of specific calcium increases.

SMILES	IC50 [nM]
O=C(/C=C/c1ccc(F)c(F)c1)N1CCC(=O)N(CC(O)CN2CCCCC2)CC1 (racemic) [Example 177, (rac)-1-[(E)-3-(3,4-Difluoro-phenyl)-acryloyl]-4-(2-hydroxy-3-piperidin-1-yl-propyl)-[1,4]diazepan-5-one]	954
COC(=O)C(CCCN1CCCCC1)N1CCN(C(=O)/C=C/c2ccc(Cl)c(Cl)c2)CCC1=O (racemic) [Example 179, (rac)-2-{4-[(E)-3-(3,4-Dichloro-phenyl)-acryloyl]-7-oxo-[1,4]diazepan-1-yl}-5-piperidin-1-yl-pentanoic acid methyl ester]	3
O=C(O)C(CCCN1CCCCC1)N1CCN(C(=O)/C=C/c2ccc(Cl)c(Cl)c2)CCC1=O (racemic) [Example 180, Lithium; (rac)-2-{4-[(E)-3-(3,4-dichloro-phenyl)-acryloyl]-7-oxo-[1,4]diazepan-1-yl}-5-piperidin-1-yl-pentanoate]	319
O=C(/C=C/c1ccc(Cl)c(Cl)c1)N1CCC(=O)N(C(CO)CCCN2CCCCC2)CC1 (racemic) [Example 181, (rac)-1-[(E)-3-(3,4-Dichloro-phenyl)-acryloyl]-4-(1-hydroxymethyl-4-piperidin-1-yl-butyl)-[1,4]diazepan-5-one]	3
O=C(O)C(CN1CCCCC1)CN1CCN(C(=O)/C=C/c2ccc(Cl)c(Cl)c2)CCC1=O (racemic) [Example 183, Lithium; (rac)-3-{4-[(E)-3-(3,4-dichloro-phenyl)-acryloyl]-7-oxo-[1,4]diazepan-1-yl}-2-piperidin-1-ylmethyl-propionate]	1230
CC1CN(C(=O)/C=C/c2ccc(Cl)c(Cl)c2)CCN(CCCN2CCCCC2)C1=O (racemic) [Example 187, (rac)-1-[(E)-3-(3,4-Dichloro-phenyl)-acryloyl]-6-methyl-4-(3-piperidin-1-yl-propyl)-[1,4]diazepan-5-one]	385
CC1(O)CCCN(CCCN2CCN(C(=O)/C=C/c3ccc(F)c(Cl)c3)CCC2=O)C1 (racemic) [Example 205]	325
O=C(/C=C/c1ccc(F)c(Cl)c1)N1CCC(=O)N(CCCN2CCCCC2CO)CC1 (racemic) [Example 210]	1140
O=C(/C=C/c1ccc(F)c(Cl)c1)N1CCC(=O)N(CCCN2CCCC(CO)C2)CC1 (racemic) [Example 211]	363
O=C(/C=C/c1ccc(F)c(Cl)c1)N1CCC(=O)N(CCCN2CC[C@H](CO)[C@H](O)C2)CC1 (racemic) [Example 215]	356
COC[C@H]1CCN(CCCN2CCN(C(=O)/C=C/c3ccc(F)c(Cl)c3)CCC2=O)C[C@H]1O (racemic) [Example 216]	726
C[C@]1(CO)CCN(CCCN2CCN(C(=O)/C=C/c3ccc(F)c(Cl)c3)CCC2=O)C[C@H]1O (racemic) [Example 219]	45
C[C@@]1(CO)CCN(CCCN2CCN(C(=O)/C=C/c3ccc(F)c(Cl)c3)CCC2=O)C[C@H]1O (racemic) [Example 220]	169
CC1(C)CCN(CCCN2CCN(C(=O)/C=C/c3ccc(F)c(Cl)c3)CCC2=O)CC1O (racemic) [Example 223]	13
C[C@@H]1[C@H](O)CCCN1CCCN1CCN(C(=O)/C=C/c2ccc(Cl)c(Cl)c2)CCC1=O (racemic) [Example 226, (rac,cis)-1-[(E)-3-(3,4-Dichloro-phenyl)-acryloyl]-4-[3-(3-hydroxy-2-methyl-piperidin-1-yl)-propyl]-[1,4]diazepan-5-one]	464
O=C(/C=C/c1ccc(Cl)c(Cl)c1)N1CCC(=O)N(CCCN2CCCCC2CO)CC1 (racemic) [Example 227]	409
O=C(/C=C/c1ccc(Cl)c(Cl)c1)N1CCC(=O)N(CCCN2CCCC(CO)C2)CC1 (racemic) [Example 228]	149
O=C(/C=C/c1ccc(Cl)c(Cl)c1)N1CCC(=O)N(CCCN2CC[C@@H](F)[C@H](O)C2)CC1 (racemic) [Example 230, (rac,trans)-1-[(E)-3-(3,4-Dichloro-phenyl)-acryloyl]-4-[3-(4-fluoro-3-hydroxy-piperidin-1-yl)-propyl]-[1,4]diazepan-5-one]	215
CC1(O)CCCN(CCCN2CCN(C(=O)/C=C/c3ccc(Cl)c(Cl)c3)CCC2=O)C1 (racemic) [Example 232]	91
O=C(/C=C/c1ccc(Cl)c(Cl)c1)N1CCC(=O)N(CCCN2CC[C@@H](O)[C@@H](F)C2)CC1 (racemic) [Example 233, (rac, cis)-1-[(E)-3-(3,4-Dichloro-phenyl)-acryloyl]-4-[3-(3-fluoro-4-hydroxy-piperidin-1-yl)-propyl]-[1,4]diazepan-5-one]	359

SMILES	IC50 [nM]
CC1CCCN(CCCN2CCN(C(=O)/C=C/c3ccc(Cl)c(Cl)c3)CCC2=O)C1 (racemic) [Example 235]	112
COCC1CCCN(CCCN2CCN(C(=O)/C=C/c3ccc(Cl)c(Cl)c3)CCC2=O)C1 (racemic) [Example 236]	565
CC1CCN(CCCN2CCN(C(=O)/C=C/c3ccc(Cl)c(Cl)c3)CCC2=O)CC1O (racemic) [Example 238]	54
CC1CN(CCCN2CCN(C(=O)/C=C/c3ccc(Cl)c(Cl)c3)CCC2=O)CCC1O (racemic) [Example 243]	133
CC(C)N1CCN(CCCN2CCN(C(=O)/C=C/c3ccc(Cl)c(Cl)c3)CCC2=O)CC1C (racemic) [Example 246, (rac)-1-[(E)-3-(3,4-Dichloro-phenyl)-acryloyl]-4-[3-(4-isopropyl-3-methyl-piperazin-1-yl)-propyl]-[1,4]diazepan-5-one]	421
CC1(CO)CCCN(CCCN2CCN(C(=O)/C=C/c3ccc(Cl)c(Cl)c3)CCC2=O)C1 (racemic) [Example 248]	226
COCC1(C)CCCN(CCCN2CCN(C(=O)/C=C/c3ccc(Cl)c(Cl)c3)CCC2=O)C1 (racemic) [Example 249]	1250
CC1(CO)CCCCN1CCCN1CCN(C(=O)/C=C/c2ccc(Cl)c(Cl)c2)CCC1=O (racemic) [Example 250]	812
O=C(/C=C/c1ccc(Cl)c(Cl)c1)N1CCC(=O)N(CCCN2CCC3(CC3)C(O)C2)CC1 (racemic) [Example 251]	8
O=C(/C=C/c1ccc(Cl)c(Cl)c1)N1CCC(=O)N(CCCN2CCC(O)C3(CC3)C2)CC1 (racemic) [Example 252]	120
C[C@@H]1CN(CCCN2CCN(C(=O)/C=C/c3ccc(Cl)c(Cl)c3)CCC2=O)CC[C@@H]1O (racemic) [Example 253]	132
CC1(CO)CCCN1CCCN1CCN(C(=O)/C=C/c2ccc(Cl)c(Cl)c2)CCC1=O (racemic) [Example 255]	561
COC(=O)NC1CCCN(CCCN2CCN(C(=O)/C=C/c3ccc(Cl)c(Cl)c3)CCC2=O)C1 (racemic) [Example 256]	1070
CC1(C)CN(CCCN2CCN(C(=O)/C=C/c3ccc(Cl)c(Cl)c3)CCC2=O)CCC1O (racemic) [Example 257]	182
COC[C@H]1CCN(CCCN2CCN(C(=O)/C=C/c3ccc(Cl)c(Cl)c3)CCC2=O)C[C@H]1O (racemic) [Example 267, (rac,cis)-1-[(E)-3-(3,4-Dichloro-phenyl)-acryloyl]-4-[3-(3-hydroxy-4-methoxymethyl-piperidin-1-yl)-propyl]-[1,4]diazepan-5-one]	214
O=C(/C=C/c1ccc(Cl)c(Cl)c1)N1CCC(=O)N(CCCN2CC[C@H](CO)[C@@H](O)C2)CC1 (racemic) [Example 268, (rac,trans)-1-[(E)-3-(3,4-Dichloro-phenyl)-acryloyl]-4-[3-(3-hydroxy-4-hydroxymethyl-piperidin-1-yl)-propyl]-[1,4]diazepan-5-one]	215
CO[C@@H]1CN(CCCN2CCN(C(=O)/C=C/c3ccc(Cl)c(Cl)c3)CCC2=O)CC[C@@H]1CO (racemic) [Example 269, (rac,cis)-1-[(E)-3-(3,4-Dichloro-phenyl)-acryloyl]-4-[3-(3-methoxy-4-hydroxymethyl-piperidin-1-yl)-propyl]-[1,4]diazepan-5-one]	619
C[C@]1(CO)CCN(CCCN2CCN(C(=O)/C=C/c3ccc(Cl)c(Cl)c3)CCC2=O)C[C@H]1O (racemic) [Example 270, (rac,cis)-1-[(E)-3-(3,4-Dichloro-phenyl)-acryloyl]-4-[3-(3-hydroxy-4-hydroxymethyl-4-methyl-piperidin-1-yl)-propyl]-[1,4]diazepan-5-one]	10
C[C@@]1(CO)CCN(CCCN2CCN(C(=O)/C=C/c3ccc(Cl)c(Cl)c3)CCC2=O)C[C@H]1O (racemic) [Example 271, (rac,trans)-1-[(E)-3-(3,4-Dichloro-phenyl)-acryloyl]-4-[3-(3-hydroxy-4-hydroxymethyl-4-methyl-piperidin-1-yl)-propyl]-[1,4]diazepan-5-one]	55
CC1CCC(O)CN1CCCN1CCN(C(=O)/C=C/c2ccc(Cl)c(Cl)c2)CCC1=O (racemic) [Example 272]	191
